Assays:
[1] = Solubility; type: physicochemical
[2] = system: hepatic microsomal cytochrome P-450; test: Induction of hepatic microsomal cytochrome P-450; type: in vivo, male Kunming strain mice
Method: (§1) Male Kunming strain mice weighing 18-22 grams were used throughout the experiments. The compounds to be tested were suspended in 5% Tween 80 and given orally by gavage. The vehicle of 5% Tween 80 solution was administered to control mice via the same route. In in vitro experiments, the compounds were dissolved in dimethylformamide and added directly into the incubation mixture.
(§2) The liver microsomal cytochrome P-450 plays a key role in the detoxification of xenobiotics. Mice were administered 250 mg/kg of Clausenamide once daily for 3 days. The control mice received the vehicle. The mice were killed after fasting overnight. Liver microsomes were prepared and microsomal monooxygenases were determined.

[3] = system: retrograde amnesia (rat); test: Retrograde amnesia (rat) under hypoxic conditions; type: in vivo, male rats; settings: time to enter dark compartment 24 h after hypoxia
Method: The apparatus (39 cm long, 21 cm high, and 21 cm wide) consists of two compartments, one made of translucent plastic (29 cm long) and the other one painted black (10 cm long). It has a bottom of spaced metal grids which are connected to a stimulating device delivering 1.6 mA for 20 s.
Both compartments are connected via a door which can be closed.
Male rats (100-120 g body weight) will be placed individually in the large compartment and allowed to explore both compartments for 3 min.
Thereafter the animals are placed in the small (dark) compartment, the connecting door is closed and the foot shock is delivered. After that the animals are put in an air-tight cage which is perfused by a gas mixture containing 3.8% oxygen and 96.2 % nitrogen.
24 hours later the rats are placed again in the bright compartment. The observation time is 3 min.
One experiment is performed in three groups of 15 animals each:
Group A: control group, not exposed to hypoxia
Group B: control group, receiving hypoxia after first training
Group C: treated animals, receiving hypoxia after first training.
Evaluation: the times the animals need to enter the dark compartment are measured in seconds.
The time difference between the two control groups is considered to be 100% (A-B=100%).
The time difference between the control group B and the treated group C is calculated in percent (C-B=X%). X is considered to be a measure for the potency of the antiamnestic effect of the substance tested.

[4] = system: pentobarbital sleeping time; test: Effect on barbiturates sleeping time in mice (pentobarbital); type: in vivo, male Kunming strain mice; settings: 250 mg/kg; for Sleeping time (X ± SE): 10 per group, control 71 ± 7, P <0.01
Method: as §1
(§3) In another experiment, mice were given a dose of 250 mg/kg of Clausenamide. Sodium pentobarbital (50 mg/kg) was injected ip 1 and 24 h after administration of the compounds. The sleeping time was estimated by recording the interval of disappearance and recovery of righting reflex. […] This means that the prolongation of pentobarbital sleeping time by Clausenamide was due to the inhibition of liver drug metabolism enzyme.

[5] = system: Aminopyrine demethylase; test: Induction of hepatic microsomal enzymes: aminopyrine demethylase; type: in vivo, male Kunming strain mice
Method: as §1, §2

[6] = system: CCl4 hepatotoxicity in mice; test: Protective action of Clausenamide against CCl4 hepatotoxicity in mice; type: in vivo, male Kunming strain mice; settings: for Liver lipids (X ± SE): control 21.0 ± 4.2; for SGPT (X ± SE): nine mice per group, control 3016 ± 23
Method: as §1
(§4) The parameters adopted for hepatotoxicity included serum transaminase (SGPT), liver triglycerides, and pathological examination of liver tissues. The liver lesions were scored mainly by the extent of inflammation and necrosis and graded from 0 to 4.
(§5) (a) Hepato-protective action
The procedure of experiment of anti-CCl4 hepatotoxicity was the same as described above. The dosages of the active compound used were 125 and 250 mg/kg. […] Liver lipids were not decreased.

[7] = system: serum and liver transaminase (GPT); test: Effect on serum and liver transaminase (GPT) levels of normal mice; type: in vivo, male Kunming strain mice
Method: as §1
Two groups of mice were administered the vehicle or 250 mg/kg of Clausenamide once daily for 7 consecutive days, respectively. The serum and liver GPT were determined 24 h after the last dose administration.

[8] = system: acetaminophen hepatotoxicity in mice; test: Protective action against acetaminophen hepatotoxicity in mice; type: in vivo, male Kunming strain mice; settings: 250 mg/kg × 3
Method: as §1, §4
The experiment of anti-acetaminophen hepatotoxicity was performed in the following way. Mice were administered two doses (250 mg/kg) of Clausenamide on the first day followed by the same dose on the second day. A dose of 150 mg/kg of acetaminophen was injected ip 6 h after the last dose of the compound. SGPT was determined and liver tissues were examined 20 h after acetaminophen injection.

[9] = system: CCl4 hepatotoxicity in mice; test: Therapeutic effect on CCl4 hepatotoxicity in mice; type: in vivo, male Kunming strain mice
Method: as §1, §4
In another experiment, mice were first injected […] of 0.15% CCl4 in vegetable oil every other day for 3 doses. Treatment of the mice with Clausenamide (250 mg/kg daily) started from the second to fifth day after the first injection of CCl4. The determination of SGPT and pathological examination of liver tissues were performed on day 7 of the experiment.

[10] = system: hypoxia tolerance (mouse); test: Increase of hypoxia tolerance (mouse); type: in vivo, male mice; settings: for surviving/total animals: 30 min before test, 3.5% oxygen, control 9/60
Method: Collectives of male mice (20 g body weight) are placed in a plastic box divided into two chambers (size of the box: 15×28×40 cm corresponding to a volume of 16.8 l per bos). 20 mice are placed in each chamber. The box is perfused with a gas mixture containing 3.5% oxygen and 96.5% nitrogen. The perfusion volume is 4 l/min. The test substance and vehicle are administered orally 30 min before the test.
About 7 min after onset of perfusion with the hypoxic mixture animals die. The experiment is stopped when in the left hand chamber (control collective) three animals only show signs of respiration. The box is opened and the number of animals of the treated group still alive is counted.
The difference between the survived animals in both groups is evaluated using the X^2 test according to Fisher and Yates (1963) (Thomann et al. 1975).

[11] = system: thioacetamide hepatotoxicity in mice; test: Protective action against thioacetamide hepatotoxicity in mice; type: in vivo, male Kunming strain mice; settings: thioacetamide 50 mg/kg
Method: as §1, §4, §5
In the experiment of thioacetamide hepatotoxicity, mice were treated according to the procedure of the first experiment except that thioacetamide (50 mg/kg) was used instead of CCl4.

[12] = system: NADPH-cytochrome c reductase; test: Induction of hepatic microsomal enzymes: NADPH-cytochrome c reductase; type: in vivo, male Kunming strain mice
Method: as §1, §2

[13] = system: CCl4 intoxicated mice; test: Hepato-protective action: SGPT of CCl4 intoxicated mice; type: in vivo, male Kunming strain mice; settings: two oral doses of 250 mg/kg
Method: as §1, §4, §5

[14] = system: benzo(a)pyrene hydroxylase (AHH); test: Induction of hepatic microsomal enzymes: benzo(a)pyrene hydroxylase (AHH); type: in vivo, male Kunming strain mice
Method: as §1, §2

[15] = Induction of hepatic microsomal cytochrome P-450: liver weight and microsomal protein; type: in vivo, male Kunming strain mice; settings: 250 mg/kg/day × 3; 6 per group; control 4.0 ± 0.2
Method: as §1, §2

[16] = system: Cytochrome b5; test: Induction of hepatic microsomal enzymes: cytochrome b5; type: in vivo, male Kunming strain mice
Method: as §1, §2

[17] = system: barbital sleeping time; test: Effect on barbiturates sleeping time in mice (barbital); type: in vivo, male Kunming strain mice
Method: as §1
as §3, with “Sodium pentobarbital (50 mg/kg) was injected ip 1 and 24 h after administration of the compounds.” left out

[18] = system: mice; test: Acute toxicity test; type: in vivo; settings: single oral dose of 3 grams/kg, 10 mice
Method: as §1

[19] = 250 mg/kg once daily for 3 days

## CN1C(=O)[C@@H](O)[C@H](c2ccccc2)[C@@H]1[C@@H](O)c1ccccc1 (relative stereo) [Clausenamide]
[1]; CHCl3, CH2Cl2, ether, ethyl acetate, etc.
  solubility in common organic solvents: only slightly soluble
[1]; hot methanol, DMSO and DMF
  solubility in hot methanol, DMSO and DMF: soluble
[2]; [19]
  Hepatic cytochrome P-450, in words: increased significantly
[2]; 250 mg/kg/day × 3, 6 per group, control 0.87 ± 0.07
  Cytochrome P-450: 1.14 ± 0.07 nmol/mg protein
[2]; 250 mg/kg, biphasic
  Action on hepatic microsomal cytochrome P-450 (concluded from sleeping time and enzyme data): inhibition and followed by induction
[3]; 3 mg/kg p.o.
  X (antiamnestic effect, C-B as percent of A-B): 47%
[3]; 10 mg/kg p.o.
  X (antiamnestic effect, C-B as percent of A-B): 65%
[3]; 30 mg/kg p.o.
  X (antiamnestic effect, C-B as percent of A-B): 100%
[4]; 1 h before pentobarbital 50 mg/kg
  Sleeping time (X ± SE): 152 ± 17 min
[4]; 1 h prior to pentobarbital
  Pentobarbital sleeping time, in words: prolonged markedly
[4]; 24 h before pentobarbital
  Pentobarbital sleeping time, in words: shortened significantly
[4]; 24 h before pentobarbital 50 mg/kg
  Sleeping time (X ± SE): 46 ± 6 min
[5]; [19]
  Aminopyrine demethylase, in words: increased significantly
[5]; 250 mg/kg/day × 3, 6 per group, control 81 ± 6.3
  Aminopyrine demethylase: 126 ± 5.2 nmol HCHO/min protein
[6]; 125 mg/kg × 2, CCl4
  Liver lipids (X ± SE): 21.6 ± 4.4 mg/g liver
[6]; 125 mg/kg × 2, CCl4, P < 0.05
  SGPT (X ± SE): 2365 ± 245 unit %
[6]; 250 mg/kg × 2, CCl4
  Liver lipids (X ± SE): 13.4 ± 3.0 mg/g liver
[6]; 250 mg/kg × 2, CCl4, graded from 0 to 4, control 1.70
  Liver lesions: Inflammation grade: 0.38 grade
[6]; 250 mg/kg × 2, CCl4, graded from 0 to 4, control 2.33
  Liver lesions: Necrosis grade: 1.33 grade
[6]; 250 mg/kg × 2, CCl4, p < 0.01
  SGPT (X ± SE): 1900 ± 257 unit %
[6]; 250 mg/kg, CCl4
  Liver injuries such as inflammation and necrosis, in words: less severe than those of the control
[6]; 125 and 250 mg/kg
  Elevation of SGPT induced by CCl4, in words: significantly depressed the elevation of SGPT
[6]; CCl4
  Liver lipids, in words: not decreased
[7]; 250 mg/kg once daily for 7 days
  SGPT level of normal mice, in words: slightly higher than that of the control, but the difference was not significant
[7]; normal mice, 250 mg/kg/day × 7, eight mice per group, control 217 ± 7.5, P > 0.05
  SGPT (X ± SE): 252 ± 22.1 unit %
[7]; normal mice, 250 mg/kg/day × 7, eight mice per group, control 260 ± 11.6, P > 0.05
  LGPT (X ± SE): 292 ± 8.0 unit/100 mg
[8]; acetaminophen 150 mg/kg ip
  Hepatic injuries, in words: markedly decreased SGPT levels and hepatic injuries
  SGPT levels, in words: markedly decreased SGPT levels
[8]; acetaminophen 150 mg/kg ip, control 79 ± 13
  Liver lipids: 82 ± 17 mg/g
[8]; acetaminophen 150 mg/kg ip, nine mice per group, control 2778 ± 270, P < 0.01
  SGPT: 697 ± 163 unit %
[8]; acetaminophen, graded from 0 to 4, control 0.5
  Liver inflammation (grade): 0.1 grade
[8]; acetaminophen, graded from 0 to 4, control 1.4
  Liver necrosis (grade): 0 grade
[9]; 250 mg/kg daily, second to fifth day after first CCl4 injection
  SGPT lowering, in words: significant SGPT lowering action
[9]; 250 mg/kg daily, second to fifth day after first CCl4 injection, day 7
  Liver lesions, in words: no effect on liver lesions
[9]; 250 mg/kg/day × 4, started after first CCl4 injection, 8 mice, control 2695 ± 110, P <0.01
  SGPT (X ± SE): 1718 ± 224 unit %
[10]; 10 mg/kg p.o.
  effect: 19.6%
  surviving/total animals: 19/60
[10]; 30 mg/kg p.o.
  effect: 41.1%
  surviving/total animals: 31/60
[10]; 100 mg/kg p.o.
  effect: 58.8%
  increase in the survival rate: 59%
  surviving/total animals: 40/60
[10]; 10 to 100 mg/kg p.o.
  hypoxia tolerance, in words: significantly increased
[11]; 250 mg/kg × 2, control 61 ± 11.7
  Liver lipids (X ± SE): 39 ± 3.9 mg/g
[11]; 250 mg/kg × 2, nine mice per group, control 1696 ± 231, P < 0.01
  SGPT (X ± SE): 718 ± 229 unit %
[11]
  SGPT levels, in words: markedly lowered the SGPT levels
[12]; [19]
  NADPH-cytochrome c reductase, in words: increased significantly
[12]; 250 mg/kg/day × 3, 6 per group, control 103 ± 2.5
  NADPH-cytochrome c reductase: 117 ± 2.5 nmol cytochrome c reduced/min/
[13]; CCl4 intoxicated mice, 8 h apart, 9 per group, control 1678 ± 261
  SGPT (X ± SE): 617 ± 323 unit %
[13]
  SGPT levels of CCl4-intoxicated mice, in words: significantly decreased SGPT levels
[14]; [19]
  Benzo(a)pyrene hydroxylase activity, in words: increased significantly
[14]; 250 mg/kg/day × 3, 6 per group, control 2.6 ± 0.4
  AHH: 5.7 ± 0.76 nmol/min/mg protein
[15]
  Liver weight: 5.4 ± 0.2 g %
[16]; [19]
  Cytochrome b5, in words: increased significantly
[16]; 250 mg/kg/day × 3, 6 per group, control 0.15 ± 0.01
  Cytochrome b5: 0.19 ± 0.01 nmol/mg protein
[17]; 250 mg/kg, 1 h before barbital 200 mg/kg, 10 per group, control 197 ± 27, P >0.05
  Sleeping time (X ± SE): 172 ± 13 min
[17]; prior administration of the compound
  Barbital sleeping time, in words: did not affect sleeping time
[18]
  Death in 7 days: did not cause death

— patent US4879390A, “Delta-butyrolactams, thereof, processes for the preparation thereof and their medical use” (priority 1984, dated 1989)
